According to PubChem BioAssay (NCI):
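A five-concentration, 48-hour dose response in 96-well plates underlies each endpoint, interpolated linearly between surrounding concentrations. GI50 marks 50% less growth. TGI: total growth inhibition.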

Legend:
Assay in all cases: NCI tumour cell line growth inhibition, 48 h
A498 renal = system: A498 renal
IGROV1 ovarian = system: IGROV1 ovarian
HCT-15 colon = system: HCT-15 colon
SK-MEL-2 melanoma = system: SK-MEL-2 melanoma
OVCAR-5 ovarian = system: OVCAR-5 ovarian
MALME-3M melanoma = system: MALME-3M melanoma
HOP-62 NSCLC = system: HOP-62 NSCLC
786-0 renal = system: 786-0 renal
RXF 393 renal = system: RXF 393 renal
SF-295 CNS = system: SF-295 CNS
KM12 colon = system: KM12 colon
SNB-19 CNS = system: SNB-19 CNS
MCF7 breast = system: MCF7 breast
CAKI-1 renal = system: CAKI-1 renal
NCI-H460 lung = system: NCI-H460 lung
OVCAR-4 ovarian = system: OVCAR-4 ovarian
OVCAR-8 ovarian = system: OVCAR-8 ovarian
EKVX NSCLC = system: EKVX NSCLC
SK-MEL-5 melanoma = system: SK-MEL-5 melanoma
T-47D breast = system: T-47D breast
K-562 leukemia = system: K-562 leukemia
SK-OV-3 ovarian = system: SK-OV-3 ovarian
NCI-H226 lung = system: NCI-H226 lung
ACHN renal = system: ACHN renal
U251 CNS = system: U251 CNS
SW-620 colon = system: SW-620 colon
UO-31 renal = system: UO-31 renal
A549 NSCLC = system: A549 NSCLC
MDA-MB-435 = system: MDA-MB-435
LOX IMVI melanoma = system: LOX IMVI melanoma
MOLT-4 leukemia = system: MOLT-4 leukemia
RPMI-8226 leukemia = system: RPMI-8226 leukemia
HCT-116 colon = system: HCT-116 colon
COLO 205 colon = system: COLO 205 colon
NCI-H23 lung = system: NCI-H23 lung
HT29 colon = system: HT29 colon
MDA-MB-231 breast = system: MDA-MB-231 breast
PC-3 prostate = system: PC-3 prostate
M14 melanoma = system: M14 melanoma
HS 578T breast = system: HS 578T breast
UACC-257 melanoma = system: UACC-257 melanoma
SF-539 CNS = system: SF-539 CNS
NCI/ADR-RES ovarian = system: NCI/ADR-RES ovarian
TK-10 renal = system: TK-10 renal
HCC-2998 colon = system: HCC-2998 colon
HL-60(TB) leukemia = system: HL-60(TB) leukemia
CCRF-CEM leukemia = system: CCRF-CEM leukemia
SR leukemia = system: SR leukemia
SK-MEL-28 melanoma = system: SK-MEL-28 melanoma
NCI-H522 lung = system: NCI-H522 lung
HOP-92 NSCLC = system: HOP-92 NSCLC
SNB-75 CNS = system: SNB-75 CNS
OVCAR-3 ovarian = system: OVCAR-3 ovarian
SF-268 CNS = system: SF-268 CNS
BT-549 breast = system: BT-549 breast
DU-145 prostate = system: DU-145 prostate
UACC-62 melanoma = system: UACC-62 melanoma
SN12C renal = system: SN12C renal

## COC(=O)[C@]12CC[C@@H](C)[C@H](C)[C@@H]1C1=CC[C@@H]3[C@@]4(C)C=C(O)C(=O)[C@@]5(C)COC(=C54)C[C@@]3(C)[C@]1(C)CC2
A498 renal
  GI50: 15.2 µM
  TGI: 32.5 µM
IGROV1 ovarian
  GI50: 8.42 µM
  TGI: 29.6 µM
HCT-15 colon
  GI50: 11.6 µM
  TGI: 26.6 µM
SK-MEL-2 melanoma
  GI50: 13.1 µM
  TGI: 29.6 µM
OVCAR-5 ovarian
  GI50: 20.9 µM
  TGI: 49.6 µM
MALME-3M melanoma
  GI50: 15 µM
  TGI: 32.4 µM
HOP-62 NSCLC
  GI50: 15.4 µM
  TGI: 35 µM
786-0 renal
  GI50: 13.9 µM
  TGI: 29.7 µM
RXF 393 renal
  GI50: 7.09 µM
  TGI: 24.9 µM
SF-295 CNS
  GI50: 13 µM
  TGI: 28.7 µM
KM12 colon
  GI50: 11.9 µM
  TGI: 29.4 µM
SNB-19 CNS
  GI50: 15.8 µM
  TGI: 37.9 µM
MCF7 breast
  GI50: 3.45 µM
  TGI: 12.3 µM
CAKI-1 renal
  GI50: 9.36 µM
  TGI: 26.7 µM
NCI-H460 lung
  GI50: 12.4 µM
  TGI: 28.9 µM
OVCAR-4 ovarian
  GI50: 8.32 µM
  TGI: 23.5 µM
OVCAR-8 ovarian
  GI50: 12.9 µM
  TGI: 47 µM
EKVX NSCLC
  GI50: 8.37 µM
  TGI: 26.5 µM
SK-MEL-5 melanoma
  GI50: 4.25 µM
  TGI: 15.3 µM
T-47D breast
  GI50: 3.66 µM
  TGI: 20.7 µM
K-562 leukemia
  GI50: 3.12 µM
  TGI: 13.8 µM
SK-OV-3 ovarian
  GI50: 14.6 µM
  TGI: 32.5 µM
NCI-H226 lung
  GI50: 15.1 µM
  TGI: 41.3 µM
ACHN renal
  GI50: 11.7 µM
  TGI: 28.7 µM
U251 CNS
  GI50: 12.6 µM
  TGI: 30.7 µM
SW-620 colon
  GI50: 11.3 µM
  TGI: 26.3 µM
UO-31 renal
  GI50: 10.1 µM
  TGI: 24.4 µM
A549 NSCLC
  GI50: 8.36 µM
  TGI: 26 µM
MDA-MB-435
  GI50: 6.12 µM
  TGI: 21.5 µM
LOX IMVI melanoma
  GI50: 8.85 µM
  TGI: 22.4 µM
MOLT-4 leukemia
  GI50: 2.21 µM
  TGI: 6.52 µM
RPMI-8226 leukemia
  GI50: 5.57 µM
  TGI: 29.7 µM
HCT-116 colon
  GI50: 9.49 µM
  TGI: 22.9 µM
COLO 205 colon
  GI50: 13.5 µM
  TGI: 29.6 µM
NCI-H23 lung
  GI50: 4.19 µM
  TGI: 18.2 µM
HT29 colon
  GI50: 10.5 µM
  TGI: 25.9 µM
MDA-MB-231 breast
  GI50: 11.9 µM
  TGI: 29.7 µM
PC-3 prostate
  GI50: 4.77 µM
  TGI: 18.5 µM
M14 melanoma
  GI50: 11.7 µM
  TGI: 27.3 µM
HS 578T breast
  GI50: 16.1 µM
  TGI: 49.9 µM
UACC-257 melanoma
  GI50: 4.32 µM
  TGI: 18.8 µM
SF-539 CNS
  GI50: 18.4 µM
  TGI: 44.3 µM
NCI/ADR-RES ovarian
  GI50: 14.3 µM
  TGI: 45.6 µM
TK-10 renal
  GI50: 12.5 µM
  TGI: 29.8 µM
HCC-2998 colon
  GI50: 11.5 µM
  TGI: 26.7 µM
HL-60(TB) leukemia
  GI50: 4.17 µM
  TGI: 19.9 µM
CCRF-CEM leukemia
  GI50: 3.38 µM
  TGI: 14.9 µM
SR leukemia
  GI50: 2.69 µM
  TGI: 8.77 µM
SK-MEL-28 melanoma
  GI50: 16.4 µM
  TGI: 38.9 µM
NCI-H522 lung
  GI50: 2.57 µM
  TGI: 9.17 µM
HOP-92 NSCLC
  GI50: 14 µM
  TGI: 28.9 µM
SNB-75 CNS
  GI50: 14.8 µM
  TGI: 43.1 µM
OVCAR-3 ovarian
  GI50: 11.5 µM
  TGI: 24.4 µM
SF-268 CNS
  GI50: 13.3 µM
  TGI: 31.6 µM
BT-549 breast
  GI50: 7.96 µM
  TGI: 25.8 µM
DU-145 prostate
  GI50: 11.7 µM
  TGI: 28.2 µM

## C=C(c1ccc(C(=O)N(C)c2ccccc2N)cc1)C(C)N1C(=O)[C@H]2CCCN2C(=O)c2ccccc21 (some centres undefined)
A498 renal
  GI50: 19.2 µM
  TGI: 67.5 µM
IGROV1 ovarian
  GI50: 69.5 µM
  TGI: > 100 µM
HCT-15 colon
  GI50: 46.5 µM
  TGI: > 100 µM
SK-MEL-2 melanoma
  GI50: 99.5 µM
  TGI: > 100 µM
OVCAR-5 ovarian
  GI50: 11.5 µM
  TGI: > 100 µM
HOP-62 NSCLC
  GI50: 31.6 µM
  TGI: > 100 µM
786-0 renal
  GI50: 57.6 µM
  TGI: > 100 µM
RXF 393 renal
  GI50: > 100 µM
  TGI: > 100 µM
SF-295 CNS
  GI50: > 100 µM
  TGI: > 100 µM
KM12 colon
  GI50: > 100 µM
  TGI: > 100 µM
SNB-19 CNS
  GI50: > 100 µM
  TGI: > 100 µM
MCF7 breast
  GI50: 23.2 µM
  TGI: > 100 µM
CAKI-1 renal
  GI50: 32.8 µM
  TGI: > 100 µM
NCI-H460 lung
  GI50: 32.1 µM
  TGI: > 100 µM
OVCAR-4 ovarian
  GI50: 2.91 µM
  TGI: 41.2 µM
OVCAR-8 ovarian
  GI50: 43.7 µM
  TGI: > 100 µM
EKVX NSCLC
  GI50: 80.6 µM
  TGI: > 100 µM
SK-MEL-5 melanoma
  GI50: 31.2 µM
  TGI: > 100 µM
T-47D breast
  GI50: 16.5 µM
  TGI: 90.5 µM
K-562 leukemia
  GI50: 19.3 µM
  TGI: > 100 µM
SK-OV-3 ovarian
  GI50: 6.72 µM
  TGI: 84.2 µM
NCI-H226 lung
  GI50: 63.4 µM
  TGI: > 100 µM
ACHN renal
  GI50: 36.5 µM
  TGI: > 100 µM
SW-620 colon
  GI50: 38.1 µM
  TGI: > 100 µM
UO-31 renal
  GI50: 53.4 µM
  TGI: > 100 µM
A549 NSCLC
  GI50: 68.8 µM
  TGI: > 100 µM
MDA-MB-435
  GI50: 38.3 µM
  TGI: > 100 µM
LOX IMVI melanoma
  GI50: 34.2 µM
  TGI: > 100 µM
MOLT-4 leukemia
  GI50: 24.8 µM
  TGI: 97.9 µM
RPMI-8226 leukemia
  GI50: 7.52 µM
  TGI: 37.7 µM
HCT-116 colon
  GI50: 19.8 µM
  TGI: > 100 µM
UACC-62 melanoma
  GI50: 24 µM
  TGI: > 100 µM
COLO 205 colon
  GI50: 24 µM
  TGI: > 100 µM
NCI-H23 lung
  GI50: 61.6 µM
  TGI: > 100 µM
HT29 colon
  GI50: 16.1 µM
  TGI: 80.2 µM
MDA-MB-231 breast
  GI50: 58.5 µM
  TGI: > 100 µM
PC-3 prostate
  GI50: 26.2 µM
  TGI: > 100 µM
M14 melanoma
  GI50: 50.1 µM
  TGI: > 100 µM
HS 578T breast
  GI50: 53.1 µM
  TGI: > 100 µM
UACC-257 melanoma
  GI50: 34.7 µM
  TGI: > 100 µM
SF-539 CNS
  GI50: 42.3 µM
  TGI: > 100 µM
NCI/ADR-RES ovarian
  GI50: 20.2 µM
  TGI: > 100 µM
TK-10 renal
  GI50: 45.5 µM
  TGI: > 100 µM
HCC-2998 colon
  GI50: 23.6 µM
  TGI: > 100 µM
HL-60(TB) leukemia
  GI50: 20.2 µM
  TGI: 80.2 µM
SN12C renal
  GI50: 26.4 µM
  TGI: > 100 µM
CCRF-CEM leukemia
  GI50: 27.4 µM
  TGI: > 100 µM
SR leukemia
  GI50: 18.7 µM
  TGI: 74.9 µM
SK-MEL-28 melanoma
  GI50: 31.2 µM
  TGI: > 100 µM
NCI-H522 lung
  GI50: 17.7 µM
  TGI: > 100 µM
HOP-92 NSCLC
  GI50: 37.2 µM
  TGI: > 100 µM
SNB-75 CNS
  GI50: 17.1 µM
  TGI: 77.5 µM
OVCAR-3 ovarian
  GI50: 82 µM
  TGI: > 100 µM
SF-268 CNS
  GI50: 25 µM
  TGI: > 100 µM
BT-549 breast
  GI50: > 100 µM
  TGI: > 100 µM
DU-145 prostate
  GI50: 33.3 µM
  TGI: > 100 µM
